Source: publication PMC5580309, “Molecular-scale features that govern the effects of O-glycosylation on a carbohydrate-binding module” (Chemical Science, 2015)
Bridge positions count the residues as written; N and C are the ends. Peptide text beside a SMILES is read from it. * marks the point of attachment. X1 = OC[C@H]1O[C@H](OC[C@H]2O[C@H](*)[C@@H](O)[C@@H](O)[C@@H]2O)[C@@H](O)[C@@H](O)[C@@H]1O; αGalNAc = CC(=O)N[C@@H]1[C@@H](O)[C@@H](O)[C@@H](CO)O[C@@H]1*; βGlcNAc = CC(=O)N[C@@H]1[C@@H](O)[C@H](O)[C@@H](CO)O[C@H]1*; βGlc = OC[C@H]1O[C@@H](*)[C@H](O)[C@@H](O)[C@@H]1O; βGal = OC[C@H]1O[C@@H](*)[C@H](O)[C@@H](O)[C@H]1O; X6 = C[C@@H]1O[C@@H](*)[C@@H](O)[C@H](O)[C@@H]1O; X9 = OC[C@H]1O[C@H](*)[C@H](O)[C@@H](O)[C@H]1O

Molecular target: T1, thermolysin (Bacillus thermoproteolyticus, UniProt P00800)
T1 sequence (P00800 233-548): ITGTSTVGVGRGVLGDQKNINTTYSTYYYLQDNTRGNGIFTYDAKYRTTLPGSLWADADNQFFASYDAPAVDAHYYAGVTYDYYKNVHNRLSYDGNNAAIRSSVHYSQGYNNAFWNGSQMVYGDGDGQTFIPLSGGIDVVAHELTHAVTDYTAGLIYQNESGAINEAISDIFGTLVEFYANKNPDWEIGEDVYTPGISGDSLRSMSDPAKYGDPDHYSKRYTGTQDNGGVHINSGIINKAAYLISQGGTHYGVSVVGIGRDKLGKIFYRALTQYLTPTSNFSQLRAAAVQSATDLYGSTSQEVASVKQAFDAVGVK
Experiment: Proteolytic stability: half-life to thermolysin degradation
Type: in vitro ADME
Details: for Change in Half-Life to Thermolysin Degradation: glyco-variant minus its corresponding unglycosylated CBM (e.g. 2-1), *** not used in the correlation plot; for half-life: thermolysin (isolated protease), thermolysin degradation, mean of three trials ± SD, procedures as described previously (ESI ref 18)
Procedure: All error bars reported are standard deviations of data achieved from three separate trials.
cellulose that were determined in accordance with our procedures as described previously 18.
The results are presented as mean of three trials ± SD. *Denotes an averaged value of four trials

| Structure (SMILES) | Change in Half-Life to Thermolysin Degradation | half-life |
| --- | --- | --- |
| CC[C@H](C)[C@@H]1NC(=O)CNC(=O)CNC(=O)[C@@H](NC(=O)[C@H](CCC(N)=O)NC(=O)CNC(=O)[C@H](Cc2ccc(O)cc2)NC(=O)[C@H](Cc2c[nH]cn2)NC(=O)[C@H](CO[C@@H]2O[C@H](CO)[C@@H](O)[C@H](O)[C@H]2NC(C)=O)NC(=O)[C@H](CCC(N)=O)NC(=O)[C@@H](N)[C@@H](C)O)CSSC[C@@H]2NC(=O)[C@H]([C@@H](C)O)NC(=O)[C@H]([C@@H](C)O)NC(=O)CNC(=O)[C@H](CO)NC(=O)[C@H](C)NC(=O)[C@H](CSSC[C@@H](C(=O)N[C@@H](CC(C)C)C(=O)O)NC(=O)[C@H](CCC(N)=O)NC(=O)[C@H](CO)NC(=O)[C@H](Cc3ccc(O)cc3)NC(=O)[C@H](Cc3ccc(O)cc3)NC(=O)[C@@H]3CCCN3C(=O)[C@H](CC(N)=O)NC(=O)[C@H](CC(C)C)NC(=O)[C@H](C(C)C)NC(=O)[C@H](CCC(N)=O)NC2=O)NC(=O)[C@H](C(C)C)NC(=O)[C@H]([C@@H](C)O)NC(=O)[C@@H]2CCCN2C(=O)CNC(=O)[C@H](CO)NC(=O)[C@H](Cc2ccc(O)cc2)NC(=O)CNC1=O [CBM variant 23] (H-TQS(βGlcNAc)HYGQCGGIGYSGPTVCASGTTCQVLNPYYSQCL-OH; disulfide 8-25, 19-35) | 5.4 min | 19.2 ± 0.6 min |
| CC[C@H](C)[C@@H]1NC(=O)CNC(=O)CNC(=O)[C@@H](NC(=O)[C@H](CCC(N)=O)NC(=O)CNC(=O)[C@H](Cc2ccc(O)cc2)NC(=O)[C@H](Cc2c[nH]cn2)NC(=O)[C@H](CO[C@@H]2O[C@H](CO)[C@@H](O)[C@H](O)[C@H]2O)NC(=O)[C@H](CCC(N)=O)NC(=O)[C@@H](N)[C@@H](C)O)CSSC[C@@H]2NC(=O)[C@H]([C@@H](C)O)NC(=O)[C@H]([C@@H](C)O)NC(=O)CNC(=O)[C@H](CO)NC(=O)[C@H](C)NC(=O)[C@H](CSSC[C@@H](C(=O)N[C@@H](CC(C)C)C(=O)O)NC(=O)[C@H](CCC(N)=O)NC(=O)[C@H](CO)NC(=O)[C@H](Cc3ccc(O)cc3)NC(=O)[C@H](Cc3ccc(O)cc3)NC(=O)[C@@H]3CCCN3C(=O)[C@H](CC(N)=O)NC(=O)[C@H](CC(C)C)NC(=O)[C@H](C(C)C)NC(=O)[C@H](CCC(N)=O)NC2=O)NC(=O)[C@H](C(C)C)NC(=O)[C@H]([C@@H](C)O)NC(=O)[C@@H]2CCCN2C(=O)CNC(=O)[C@H](CO)NC(=O)[C@H](Cc2ccc(O)cc2)NC(=O)CNC1=O [CBM variant 24] (H-TQS(βGlc)HYGQCGGIGYSGPTVCASGTTCQVLNPYYSQCL-OH; disulfide 8-25, 19-35) | 3 min | 16.8 ± 1.8 min |
| CC[C@H](C)[C@@H]1NC(=O)CNC(=O)CNC(=O)[C@@H](NC(=O)[C@H](CCC(N)=O)NC(=O)CNC(=O)[C@H](Cc2ccc(O)cc2)NC(=O)[C@H](Cc2c[nH]cn2)NC(=O)[C@H](CO[C@H]2O[C@H](CO)[C@H](O)[C@H](O)[C@H]2NC(C)=O)NC(=O)[C@H](CCC(N)=O)NC(=O)[C@@H](N)[C@@H](C)O)CSSC[C@@H]2NC(=O)[C@H]([C@@H](C)O)NC(=O)[C@H]([C@@H](C)O)NC(=O)CNC(=O)[C@H](CO)NC(=O)[C@H](C)NC(=O)[C@H](CSSC[C@@H](C(=O)N[C@@H](CC(C)C)C(=O)O)NC(=O)[C@H](CCC(N)=O)NC(=O)[C@H](CO)NC(=O)[C@H](Cc3ccc(O)cc3)NC(=O)[C@H](Cc3ccc(O)cc3)NC(=O)[C@@H]3CCCN3C(=O)[C@H](CC(N)=O)NC(=O)[C@H](CC(C)C)NC(=O)[C@H](C(C)C)NC(=O)[C@H](CCC(N)=O)NC2=O)NC(=O)[C@H](C(C)C)NC(=O)[C@H]([C@@H](C)O)NC(=O)[C@@H]2CCCN2C(=O)CNC(=O)[C@H](CO)NC(=O)[C@H](Cc2ccc(O)cc2)NC(=O)CNC1=O [CBM variant 25] (H-TQS(αGalNAc)HYGQCGGIGYSGPTVCASGTTCQVLNPYYSQCL-OH; disulfide 8-25, 19-35) | 9 min | 22.8 ± 3 min |
| CC[C@H](C)[C@@H]1NC(=O)CNC(=O)CNC(=O)[C@@H](NC(=O)[C@H](CCC(N)=O)NC(=O)CNC(=O)[C@H](Cc2ccc(O)cc2)NC(=O)[C@H](Cc2c[nH]cn2)NC(=O)[C@H](CO[C@H]2O[C@H](CO)[C@H](O)[C@H](O)[C@H]2O)NC(=O)[C@H](CCC(N)=O)NC(=O)[C@@H](N)[C@@H](C)O)CSSC[C@@H]2NC(=O)[C@H]([C@@H](C)O)NC(=O)[C@H]([C@@H](C)O)NC(=O)CNC(=O)[C@H](CO)NC(=O)[C@H](C)NC(=O)[C@H](CSSC[C@@H](C(=O)N[C@@H](CC(C)C)C(=O)O)NC(=O)[C@H](CCC(N)=O)NC(=O)[C@H](CO)NC(=O)[C@H](Cc3ccc(O)cc3)NC(=O)[C@H](Cc3ccc(O)cc3)NC(=O)[C@@H]3CCCN3C(=O)[C@H](CC(N)=O)NC(=O)[C@H](CC(C)C)NC(=O)[C@H](C(C)C)NC(=O)[C@H](CCC(N)=O)NC2=O)NC(=O)[C@H](C(C)C)NC(=O)[C@H]([C@@H](C)O)NC(=O)[C@@H]2CCCN2C(=O)CNC(=O)[C@H](CO)NC(=O)[C@H](Cc2ccc(O)cc2)NC(=O)CNC1=O [CBM variant 26] (H-TQS(X9)HYGQCGGIGYSGPTVCASGTTCQVLNPYYSQCL-OH; disulfide 8-25, 19-35) | 16.2 min | 30 ± 3 min |
| CC[C@H](C)[C@@H]1NC(=O)CNC(=O)CNC(=O)[C@@H](NC(=O)[C@H](CCC(N)=O)NC(=O)CNC(=O)[C@H](Cc2ccc(O)cc2)NC(=O)[C@H](Cc2c[nH]cn2)NC(=O)[C@H](CO[C@@H]2O[C@H](CO)[C@H](O)[C@H](O)[C@H]2O)NC(=O)[C@H](CCC(N)=O)NC(=O)[C@@H](N)[C@@H](C)O)CSSC[C@@H]2NC(=O)[C@H]([C@@H](C)O)NC(=O)[C@H]([C@@H](C)O)NC(=O)CNC(=O)[C@H](CO)NC(=O)[C@H](C)NC(=O)[C@H](CSSC[C@@H](C(=O)N[C@@H](CC(C)C)C(=O)O)NC(=O)[C@H](CCC(N)=O)NC(=O)[C@H](CO)NC(=O)[C@H](Cc3ccc(O)cc3)NC(=O)[C@H](Cc3ccc(O)cc3)NC(=O)[C@@H]3CCCN3C(=O)[C@H](CC(N)=O)NC(=O)[C@H](CC(C)C)NC(=O)[C@H](C(C)C)NC(=O)[C@H](CCC(N)=O)NC2=O)NC(=O)[C@H](C(C)C)NC(=O)[C@H]([C@@H](C)O)NC(=O)[C@@H]2CCCN2C(=O)CNC(=O)[C@H](CO)NC(=O)[C@H](Cc2ccc(O)cc2)NC(=O)CNC1=O [CBM variant 27] (H-TQS(βGal)HYGQCGGIGYSGPTVCASGTTCQVLNPYYSQCL-OH; disulfide 8-25, 19-35) | 3.6 min | 17.4 ± 1.2 min |
| CC[C@H](C)[C@@H]1NC(=O)CNC(=O)CNC(=O)[C@@H](NC(=O)[C@H](CCC(N)=O)NC(=O)CNC(=O)[C@H](Cc2ccc(O)cc2)NC(=O)[C@H](Cc2c[nH]cn2)NC(=O)[C@H](CO[C@@H]2O[C@@H](C)[C@@H](O)[C@@H](O)[C@@H]2O)NC(=O)[C@H](CCC(N)=O)NC(=O)[C@@H](N)[C@@H](C)O)CSSC[C@@H]2NC(=O)[C@H]([C@@H](C)O)NC(=O)[C@H]([C@@H](C)O)NC(=O)CNC(=O)[C@H](CO)NC(=O)[C@H](C)NC(=O)[C@H](CSSC[C@@H](C(=O)N[C@@H](CC(C)C)C(=O)O)NC(=O)[C@H](CCC(N)=O)NC(=O)[C@H](CO)NC(=O)[C@H](Cc3ccc(O)cc3)NC(=O)[C@H](Cc3ccc(O)cc3)NC(=O)[C@@H]3CCCN3C(=O)[C@H](CC(N)=O)NC(=O)[C@H](CC(C)C)NC(=O)[C@H](C(C)C)NC(=O)[C@H](CCC(N)=O)NC2=O)NC(=O)[C@H](C(C)C)NC(=O)[C@H]([C@@H](C)O)NC(=O)[C@@H]2CCCN2C(=O)CNC(=O)[C@H](CO)NC(=O)[C@H](Cc2ccc(O)cc2)NC(=O)CNC1=O [CBM variant 28] (H-TQS(X6)HYGQCGGIGYSGPTVCASGTTCQVLNPYYSQCL-OH; disulfide 8-25, 19-35) | 23.4 min | 37.2 ± 6.6 min |
| CC[C@H](C)[C@@H]1NC(=O)CNC(=O)CNC(=O)[C@@H](NC(=O)[C@H](CCC(N)=O)NC(=O)CNC(=O)[C@H](Cc2ccc(O)cc2)NC(=O)[C@H](Cc2c[nH]cn2)NC(=O)[C@H](CO[C@H]2O[C@H](CO[C@H]3O[C@H](CO)[C@@H](O)[C@H](O)[C@@H]3O)[C@@H](O)[C@H](O)[C@@H]2O)NC(=O)[C@H](CCC(N)=O)NC(=O)[C@@H](N)[C@@H](C)O)CSSC[C@@H]2NC(=O)[C@H]([C@@H](C)O)NC(=O)[C@H]([C@@H](C)O)NC(=O)CNC(=O)[C@H](CO)NC(=O)[C@H](C)NC(=O)[C@H](CSSC[C@@H](C(=O)N[C@@H](CC(C)C)C(=O)O)NC(=O)[C@H](CCC(N)=O)NC(=O)[C@H](CO)NC(=O)[C@H](Cc3ccc(O)cc3)NC(=O)[C@H](Cc3ccc(O)cc3)NC(=O)[C@@H]3CCCN3C(=O)[C@H](CC(N)=O)NC(=O)[C@H](CC(C)C)NC(=O)[C@H](C(C)C)NC(=O)[C@H](CCC(N)=O)NC2=O)NC(=O)[C@H](C(C)C)NC(=O)[C@H]([C@@H](C)O)NC(=O)[C@@H]2CCCN2C(=O)CNC(=O)[C@H](CO)NC(=O)[C@H](Cc2ccc(O)cc2)NC(=O)CNC1=O [CBM variant 29] (H-TQS(X1)HYGQCGGIGYSGPTVCASGTTCQVLNPYYSQCL-OH; disulfide 8-25, 19-35) | 37.8 min | 51.6 ± 1.8 min |
